Experimental data from ChEMBL document CHEMBL5385929, “Tabersonine Enhances Olaparib Sensitivity through FHL1-Mediated Epithelial-Mesenchymal Transition in an Ovarian Tumor” (J Nat Prod, 2024).
Activity calls are given as the source filed them. No cut-off for these calls is given here.

Tests used:
Mus musculus [1] = test: Potentiation of olaparib sensitivity in BALB/c mouse xenografted with shNC RNA-transfected human A2780 cells assessed as downregulation of N-cadherin protein expression in tumor at 15 mg/kg, ip co-administered with olaparib for 2 weeks by western blot analysis; type: functional, organism-based
Mus musculus [2] = test: Potentiation of olaparib sensitivity in BALB/c mouse xenografted with shNC RNA-transfected human A2780 cells assessed as downregulation of vimentin protein expression in tumor at 15 mg/kg, ip co-administered with olaparib for 2 weeks by western blot analysis; type: functional, organism-based
Mus musculus [3] = test: Potentiation of olaparib sensitivity in BALB/c mouse xenografted with shNC RNA-transfected human A2780 cells assessed as upregulation of FHL1 protein expression in tumor at 15 mg/kg, ip co-administered with olaparib for 2 weeks by western blot analysis; type: functional, organism-based
[4] = Toxicity in BALB/c mouse xenografted with human A2780 cells assessed as decrease in body weight at 30 mg/kg, ip administered every other day and measured on day 6; type: organism-based; conditions: in vivo, 144 h, time 6 day
SK-OV-3 [5] = test: Inhibition of cell invasion in human SK-OV-3 cells transfected with shFHL1-2 RNA at 10 uM measured after 48 hrs by Transwell assay; type: functional, cell-based
SK-OV-3 [6] = test: Inhibition of cell migration in human SK-OV-3 cells transfected with shFHL1-1 RNA at 10 uM measured after 24 to 48 hrs by wound healing assay; type: functional, cell-based; conditions: time 24-48 hrs
A2780 [7] = test: Downregulation of EMT signalling in human A2780 cells transfected with shFHL1-2 RNA assessed as vimentin protein expression at 10 uM by western blot analysis; type: functional, cell-based
A2780 [8] = test: Potentiation of olaparib sensitivity in human A2780 cells transfected with shFHL1-1 RNA assessed as inhibition of cell invasion at 10 uM measured after 48 hrs in presence of olaparib by Transwell assay; type: functional, cell-based
A2780 [9] = test: Inhibition of cell migration in human A2780 cells transfected with shFHL1-1 RNA at 10 uM measured after 24 to 48 hrs by wound healing assay; type: functional, cell-based; conditions: time 24-48 hrs
A2780 [10] = test: Potentiation of olaparib-induced antitumor activity against shFHL1-1 RNA-transfected human A2780 cells xenografted in BALB/c mouse assessed as decrease in tumor weight at 15 mg/kg, ip co-administered with olaparib for 2 weeks; type: functional, organism-based
A2780 [11] = test: Potentiation of olaparib sensitivity in human A2780 cells transfected with shFHL1-2 RNA assessed as inhibition of cell invasion at 10 uM measured after 48 hrs in presence of olaparib by Transwell assay; type: functional, cell-based
A2780 [12] = test: Potentiation of olaparib sensitivity in human A2780 cells assessed as inhibition of colony formation at 10 uM incubated for 48 hrs in presence of olaparib followed by drug wash-out and incubated in fresh medium for 2 weeks by crystal violet staining based analysis; type: functional, cell-based
A2780 [13] = test: Potentiation of olaparib-induced antitumor activity against shNC RNA-transfected human A2780 cells xenografted in BALB/c mouse assessed as decrease in tumor volume at 15 mg/kg, ip co-administered with olaparib for 2 weeks; type: functional, organism-based
[14] = Toxicity in BALB/c mouse xenografted with human A2780 cells assessed as effect on body weight at 5 to 15 mg/kg, ip administered every other day for 2 weeks; type: organism-based; conditions: in vivo, 336 h, dose 5-15 mg/kg
A2780 [15] = test: Antitumor activity against human A2780 cells xenografted in BALB/c mouse assessed as decrease in tumor growth at 5 to 15 mg/kg, ip administered every other day for 2 weeks; type: functional, organism-based; conditions: dose 5-15 mg/kg
SK-OV-3 [16] = test: Potentiation of olaparib sensitivity in human SK-OV-3 cells transfected with shFLH1-1 RNA assessed as downregulation of EMT signaling by measuring vimentin protein expression at 10 uM in presence of olaparib by western blot analysis; type: functional, cell-based
SK-OV-3 [17] = test: Downregulation of EMT signalling in human SK-OV-3 cells transfected with shFHL1-2 RNA assessed as E-cadherin protein expression at 10 uM by western blot analysis; type: functional, cell-based
A2780 [18] = test: Potentiation of olaparib sensitivity in human A2780 cells transfected with shFLH1-1 RNA assessed as downregulation of EMT signaling by measuring E-cadherin protein expression at 10 uM in presence of olaparib by western blot analysis; type: functional, cell-based
A2780 [19] = test: Potentiation of olaparib-induced antitumor activity against shNC RNA-transfected human A2780 cells xenografted in BALB/c mouse assessed as decrease in lung metastatic nodules at 15 mg/kg, ip co-administered with olaparib every other day from day 6 of tumor cell inoculation and measured on day 30 post-tumor cell inoculation by H and E staining based bright field microscopic analysis; type: functional, organism-based; conditions: time 24.0 day
A2780 [20] = test: Antitumor activity against human A2780 cells xenografted in BALB/c mouse assessed as decrease in tumor weight at 5 to 15 mg/kg, ip administered every other day for 2 weeks; type: functional, organism-based; conditions: dose 5-15 mg/kg
Mus musculus [21] = test: Potentiation of olaparib sensitivity in BALB/c mouse xenografted with shFHL1-1 RNA-transfected human A2780 cells assessed as downregulation of N-cadherin protein expression in tumor at 15 mg/kg, ip co-administered with olaparib for 2 weeks by western blot analysis; type: functional, organism-based
SK-OV-3 [22] = test: Downregulation of EMT signalling in human SK-OV-3 cells transfected with shFHL1-2 RNA assessed as vimentin protein expression at 10 uM by western blot analysis; type: functional, cell-based
A2780 [23] = test: Inhibition of cell invasion in human A2780 cells transfected with shFHL1-2 RNA at 10 uM measured after 48 hrs by Transwell assay; type: functional, cell-based
SK-OV-3 [24] = test: Effect on FHL1 mRNA expression in human SK-OV-3 cells at 5 to 20 uM by real-time PCR analysis; type: functional, cell-based; conditions: dose 5-20 µM
SK-OV-3 [25] = test: Inhibition of cell migration in human SK-OV-3 cells transfected with shFHL1-2 RNA at 10 uM measured after 24 to 48 hrs by wound healing assay; type: functional, cell-based; conditions: time 24-48 hrs
SK-OV-3 [26] = test: Potentiation of olaparib sensitivity in human SK-OV-3 cells transfected with shFLH1-1 RNA assessed as downregulation of EMT signaling by measuring N-cadherin protein expression at 10 uM in presence of olaparib by western blot analysis; type: functional, cell-based
A2780 [27] = test: Downregulation of EMT signalling in human A2780 cells assessed as upregulation of E-cadherin protein expression at 10 uM by western blot analysis; type: functional, cell-based
Mus musculus [28] = test: Potentiation of olaparib sensitivity in BALB/c mouse xenografted with shNC RNA-transfected human A2780 cells assessed as increase in FHL1 protein expression in tumor at 15 mg/kg, ip co-administered with olaparib for 2 weeks by immunohistochemistry; type: functional, organism-based
SK-OV-3 [29] = test: Potentiation of olaparib sensitivity in human SK-OV-3 cells transfected with shFHL1-2 RNA assessed as inhibition of cell invasion at 10 uM measured after 48 hrs in presence of olaparib by Transwell assay; type: functional, cell-based
A2780 [30] = test: Downregulation of EMT signalling in human A2780 cells transfected with shFHL1-2 RNA assessed as E-cadherin protein expression at 10 uM by western blot analysis; type: functional, cell-based
A2780 [31] = test: Potentiation of olaparib sensitivity in human A2780 cells assessed as inhibition of cell invasion at 10 uM measured after 48 hrs in presence of olaparib by Transwell assay; type: functional, cell-based

**Q.** With `CC[C@]12C=CCN3CC[C@]4(C(=C(C(=O)OC)C1)Nc1ccccc14)[C@@H]32` [TABERSONINE] as the molecule, how does the Activity (Mus musculus [1]) read?
**A.** Active

**Q.** And the Activity (Mus musculus [2])?
**A.** Active

**Q.** What about the Activity (Mus musculus [3]) of the same molecule?
**A.** Active

**Q.** And the Activity [4]?
**A.** Toxic

**Q.** And the inhibition (SK-OV-3 [5])?
**A.** inactive

**Q.** And the inhibition (SK-OV-3 [6])?
**A.** inactive

**Q.** And the inhibition (A2780 [7])?
**A.** inactive

**Q.** What about the Activity (A2780 [8]) of the same molecule?
**A.** inactive

**Q.** What about the inhibition (A2780 [9]) of the same molecule?
**A.** inactive

**Q.** What about the Activity (A2780 [10]) of the same molecule?
**A.** inactive

**Q.** And the Activity (A2780 [11])?
**A.** inactive

**Q.** What about the Activity (A2780 [12]) of the same molecule?
**A.** Active

**Q.** And the Activity (A2780 [13])?
**A.** Active

**Q.** And the Activity [14]?
**A.** Non-Toxic

**Q.** What about the Activity (A2780 [15]) of the same molecule?
**A.** Active

**Q.** And the Activity (SK-OV-3 [16])?
**A.** inactive

**Q.** And the inhibition (SK-OV-3 [17])?
**A.** inactive

**Q.** And the Activity (A2780 [18])?
**A.** inactive

**Q.** And the Activity (A2780 [19])?
**A.** Active

**Q.** And the Activity (A2780 [20])?
**A.** Active

**Q.** What about the Activity (Mus musculus [21]) of the same molecule?
**A.** inactive

**Q.** And the inhibition (SK-OV-3 [22])?
**A.** inactive

**Q.** And the inhibition (A2780 [23])?
**A.** inactive

**Q.** What about the Activity (SK-OV-3 [24]) of the same molecule?
**A.** inactive

**Q.** And the inhibition (SK-OV-3 [25])?
**A.** inactive

**Q.** What about the Activity (SK-OV-3 [26]) of the same molecule?
**A.** inactive

**Q.** What about the inhibition (A2780 [27]) of the same molecule?
**A.** Active

**Q.** And the Activity (Mus musculus [28])?
**A.** Active

**Q.** What about the Activity (SK-OV-3 [29]) of the same molecule?
**A.** inactive

**Q.** And the inhibition (A2780 [30])?
**A.** inactive

**Q.** And the Activity (A2780 [31])?
**A.** Active
